Reference: PMC3126777, “Selective anticancer activity of a hexapeptide with sequence homology to a non-kinase domain of Cyclin Dependent Kinase 4” (Molecular Cancer, 2011)
“Also recorded” adds a separate entry of the source. Like-named read-outs stand apart in the source and are kept apart here.

What was measured:
[1] = tested on: normal diploid human fibroblasts; assay: In-vitro morphological cell viability screen, normal fibroblasts; assay type: cell-based; conditions: for effect on normal diploid fibroblasts (in words): 5 mM
Method: (§2) A broad search for possible biological activity associated with the [sequence] peptide sequence was initially instituted by screening human bladder cancer cell lines for potential in-vitro morphological changes, compared to control cultures of normal diploid human fibroblasts at 4-8 passages from primary culture as controls. […] The peptides were dissolved, over a range of concentrations, in Ham's F12 + 10% FCS and introduced in 100 μL quantities to microwells containing 500 RT112 bladder cancer cells, or normal diploid human fibroblasts, in 200 μL of Ham's F12 + 10% FCS plated 24 hours earlier on 96 well plates.

[2] = tested on: RT112 human bladder cancer cells; assay: In-vitro morphological cell viability screen, RT112; assay type: cell-based; conditions: for Cell Viability Human Bladder Cancer: RT112, dose 5.0 mM, Ham's F12 + 10% FCS, morphological appearance
Method: as §2

[3] = tested on: Cdk1 and Cdk4 expression in RT112 cells; assay: Western blotting of Cdk1 and Cdk4 expression, RT112; assay type: cell-based, human; conditions: RT112, 5 mM linear end-capped peptide, 0 - 10 days, Western blot
Source text: This co-expression is unaffected by cytocidal doses of cisdiamminedichloroplatinum but can accompany spontaneous cancer cell death. Whether or not Cdk1/Cdk4 co-expression remained constant in cancer cells dying as a result of exposure to PRGPRP was thus examined by Western blotting.
(§1) All cell lines were from certified sources.

[4] = tested on: NCI-H460 cells; assay: Mitochondrial function (alamar blue); assay type: cell-based, human; conditions: H460, chloroquine, 96 hours after initial exposure (Figure 7B)
Method: Mitochondrial function (alamar blue) NCI-H460 cells were grown in Ham's F12 media supplemented with 10% FCS. Cells were harvested and added to 96-well plates at densities of 250-1000. Compounds were made up from stock solutions and added directly to cells at the concentrations indicated. Cells were grown with compound for the indicated time at 37°C, 5% CO2, in a humidified atmosphere. Alamar Blue 10% (v/v) was then added and incubated for a further 4 h, and fluorescent product detected using the BMG FLUOstar plate reader. The media only background was subtracted and the data analysed as appropriate.

[5] = tested on: NCI-H460 cells; assay: Cellular ATP levels (CellTiter-Glo assay); assay type: cell-based, human; conditions: H460, chloroquine, 96 hours after initial exposure (Figure 7B)
Method: Cellular ATP levels (CellTiter-Glo assay) Cells were grown, seeded and compound-treated as for the alamar Blue assay. A volume of the CellTiter-Glo reagent equal to the volume of cell culture media was added to the cells. Plates were mixed for 2 min on an orbital shaker to induce cell lysis before the plate was incubated at room temperature for 10 min to stabilize the signal. The luminescent signal was measured and the media only background was subtracted.

[6] = tested on: H460 cells; assay: Autophagy Assay (Cyto-ID Green, flow cytometry); assay type: cell-based, human; conditions: H460, 25 μM, positive control, 72 h and 96 h
Method: Autophagy Assay was performed as recommended by the manufacturers' instructions (Enzo ENZ-51031-[…]). Briefly, H460 cells were seeded into 6 well plates at 2.5 × 10^5 and 1 × 10^5 cells/well. Immediately after cell plating, chloroquine or […] were added at the concentrations indicated. Following compound treatment, cells were washed once in PBS and resuspended in x1 Cyto-ID Green autophagy detection reagent and incubated at room temperature for 30 min. Immediately prior to analysis, propidium iodide (PI) solution was added to the cell suspension at a final concentration of 2.5 μg/ml, to assess cell death. Analysis was carried out using FACSCalibur (BD Biosciences). Cyto-ID Green autophagy reagent was measured in the FL-1 channel (530/30 nm bandpass filters with excitation at 488 nm) and PI measured in the FL-3 channel (670 nm longpass filters with excitation at 488 nm).

[7] = tested on: NCI-H460 cells; assay: Total cellular protein (sulphorhodamine B assay); assay type: cell-based, human; conditions: H460, chloroquine, 96 hours after initial exposure (Figure 7B)
Method: Control medium/alamar blue were removed and 200 μl PBS was added. […] Wells were rinsed with water and allowed to air dry. Cells were then stained in 0.4% SRB solution, before rinsing with 1% acetic acid and air drying. Incorporated dye was solubilised in 10 mM Tris and absorbance measured at 565 nm and 690 nm. Absorbance measurements at 690 nm were subtracted from the 565 nm readings to correct for multi-well plate absorbance.

[8] = tested on: H460 Human Non-small Cell Lung Cancer
[9] = tested on: RT112 human bladder cancer and H460 human non-small lung cancer cell lines; assay: Cell killing by cyclic amphiphilic peptides (viability and clonogenic survival); assay type: cell-based; conditions: for improvement in selective cancer cell cytotoxicity: cyclic amphiphilic cassettes compared with the earlier PRGPRP peptides; for time at which cell killing reached a maximum: for the majority of cell lines
Source text: Attempts to limit proteolysis and improve cell uptake, by incorporating the hexameric peptide sequence into cyclic peptide cassettes were undertaken, initially without success (Table 3,X-XIII). Linear constructs attaching PRGPRP to a known cell-internalising amphiphilic sequence were also unsuccessful (Table 3,XIV and 3XV). […] Selective toxicity to these cancer cell lines, and not normal fibroblasts, was retained (Table 4).
as §1

[10] = tested on: H460 human non-small cell lung cancer cells; assay: Necrosis assay by Trypan Blue exclusion, H460; assay type: cell-based; conditions: H460, 200 μM, 2, 3, 4 and 7 days after plating, triplicate wells
Method: Necrosis Assay Cells were plated in triplicate in 96 well plates at concentrations of 500 cells per well (HT1299, MCF-7) or 1000 cells per well (H460, MRC5-hTERT) in the presence or absence of the relevant compound and assessed by Trypan Blue exclusion At 2,3,4 and 7 days after plating. To assay, cells were trypsinised off, stained with trypan blue in isotonic medium and live and dead cells separately counted visually by haemocytomter. Each data point is the mean of results from triplicate wells (Solid lines - Live cells, Broken lines - Dead Cells; Blue - Control, Red - THR53 200 μM).

[11] = dose 5.0 mM, Ham's F12 + 10% FCS, morphological appearance

Molecule	Cell Viability Normal Diploid Fibroblasts [1, 11]	Cell Viability Human Bladder Cancer [2]	Cell Viability Human Non-small Cell Lung Cancer ([8]; H460, dose 200 μM)	Cell Viability Normal Diploid Fibroblasts ([1]; dose 200 μM)	other results
PRRPGP [VI, linear end-capped hexapeptide PRRPGP, one arginine transposed]	+ + +	+ + +			toxicity to RT112 human bladder cancer cells (in words) ([2]; 5 mM): markedly diminishes RT112 human bladder cancer cell killing; Cdk1 expression compared to Cdk4 [3]: not PRRPGP
CCN(CC)CCCC(C)Nc1ccnc2cc(Cl)ccc12 (centres unmarked) [Chloroquine, reference compound]					mitochondrial oxidation/reduction [4]: ubiquitous effect; ATP levels [5]: ubiquitous effect; autophagy, Cyto-ID Green FL-1 peak [6]: increase in autophagy; total cellular protein [7]: ubiquitous effect
Cyc-[PRGPRPvalklalklal] (head to tail) [THR79, cyclic amphiphilic analogue with D-amino acids, Cyc-[PRGPRPvalklalklal]]					Cell Viability Human Non-small Cell Lung Cancer ([8]; H460, dose 50 μM): _ _ _; Cell Viability Normal Diploid Fibroblasts ([1]; dose 50 μM): + + +; improvement in selective cancer cell cytotoxicity [9]: fifty- to a hundred-fold improvement; time at which cell killing reached a maximum [9]: ≤ 4 days
Cyc-[AAAGGGPRGPRPGGGAAA] (head to tail) [X, cyclic non-amphiphilic analogue of PRGPRP, Cyc-[…]]			+ + +	+ + +	
Linear FPPRGPRPVKLALKLALK [XIV, linear amphiphilic analogue of PRGPRP, …]			+ + +	+ + +	
Cyc-[FPPRRPGPVKLALKLALK] (head to tail) [THR53C, PRRPGP in cyclic amphiphilic cassette, Cyc-[…]]			+ + +	+ + +	necrosis detected by trypan blue uptake [10]: not with THR53C
Linear PRGPRPVALKLALKLAL [XV, linear amphiphilic analogue of PRGPRP, …]			+ + +	+ + +	
RGPR [V, shorter linear peptide RGPR]	+ + +	+ + +			toxicity to RT112 human bladder cancer cells (in words) ([2]; 5 mM): inactive
RGPRP [IV, linear N'-capped synthetic pentapeptide amide RGPRP]	+ + +				effect on normal diploid fibroblasts (in words) [1]: sparing normal diploid fibroblasts; toxicity to RT112 human bladder cancer cells (in words) ([2]; 5 mM): greater selective toxicity
PRGPEP [VIII, hexapeptide with arginine substituted by glutamic acid]	+ + +	+ + +			effect on normal diploid fibroblasts (in words) [1]: no effect; toxicity to RT112 human bladder cancer cells (in words) ([2]; 5 mM): lacked cytotoxic activity
Cyc-[GGGGGGPRGPRPGGGGGG] (head to tail) [XI, cyclic non-amphiphilic analogue of PRGPRP, Cyc-[…]]			+ + +	+ + +	
Cyc-[PRGPR(Me)PVALKLALKLAL] (head to tail) [XXI]			++ +		
Ac-PRGPRP-NH2 [THR1, linear N'-capped PRGPRP-amide hexapeptide]	+ + + + +	- - -			effect on normal diploid fibroblasts (in words) [1]: stimulates normal fibroblast growth; also recorded: increases the confluent cell density; toxicity to RT112 human bladder cancer cells (in words) ([2]; 5 mM): greater selective toxicity; also recorded: complete necrosis; Cdk1 expression compared to Cdk4 [3]: progressive rise
Cyc-[AAGPGGPRGPRPGGPGAA] (head to tail) [XIII, cyclic non-amphiphilic analogue of PRGPRP, Cyc-[…]]			+ + +	+ + +	
Cyc-GGGGGGPRGPRPGGGGGG] (head to tail) [XII]			+ + +	+ + +	
PEGPRP [VII, hexapeptide with arginine substituted by glutamic acid]	+ + +	+ + +			effect on normal diploid fibroblasts (in words) [1]: no effect; toxicity to RT112 human bladder cancer cells (in words) ([2]; 5 mM): lacked cytotoxic activity
PEGPEP [IX, hexapeptide with both arginines substituted by glutamic acid]	+ + +	+ + +			
Cyc-[PR(Me)GPRPVALKLALKLAL] (head to tail) [XX]			+ +/-		
PRGPR [III, linear N'-capped synthetic peptide amide PRGPR]	+ + +	- - -			
Cyc-[PRGPRPVALKLALKLAL] (head to tail) [THR54, cyclic amphiphilic analogue, Cyc-[…]]					Cell Viability Human Non-small Cell Lung Cancer ([8]; H460, dose 100 μM): _ _ _; Cell Viability Normal Diploid Fibroblasts ([1]; dose 100 μM): + + +; improvement in selective cancer cell cytotoxicity [9]: fifty- to a hundred-fold improvement; time at which cell killing reached a maximum [9]: ≤ 4 days
FPPRGPRPVQ [I]					effect on normal fibroblasts (in words) ([1]; 1.0 mM): partial sparing; Cell Viability Normal Diploid Fibroblasts ([1]; dose 1.0 mM, Ham's F12 + 10% FCS, morphological appearance): + +/-; toxicity to RT112 human bladder cancer cells (in words) ([2]; 1.0 mM): selectively toxic
